Test results reported in US9066905B2, “Synthetic peptides and methods of use for autoimmune disease therapies” (President and Fellows of Harvard College, priority 1998, dated 2015).
Where two headings read alike, the source gives them in different places. Residues, ends and D or L forms follow the SMILES beside them.

How the values were obtained:
[1] = target: HLA-DR4 (DRB1*0401) molecules (Homo sapiens, UniProt P01903+P01911, A100K/A169T/F76Y/I96L/K127E/L162R/M171V/N62H/P40V/Q125Y/R42H/S133A/S149N/S66Y/V115G/V209L/W38E); assay: Competitive binding assay with recombinant water-soluble HLA-DR4
[2] = target: HLA-DR1 (DRB1*0101) molecules (Homo sapiens, UniProt P01903+P01911, A100R/D57E/F55L/F60I/F76Y/I96L/L162R/M171V/P40L/Q125E/R42F/V115G/Y59C); assay: Competitive binding assay with recombinant water-soluble HLA-DR1
[3] = Affinity for HLA-DR4 (DRB1*0401) molecules determined by competition with biotinylated competitor HA 306-318, biotinylated competitor HA306-318
[4] = biotinylated competitor YEAK, read-out: Affinity for HLA-DR4 (DRB1*0401) molecules determined by competition with biotinylated competitor YEAK
[5] = Affinity for HLA-DR1 (DRB1*0101) molecules determined by competition with biotinylated competitor HA 306-318, biotinylated competitor HA306-318
[6] = biotinylated competitor YEAK, read-out: Affinity for HLA-DR1 (DRB1*0101) molecules determined by competition with biotinylated competitor YEAK

Row | SMILES | IC50 [1, 3] [µM] | IC50 [1, 4] [µM] | IC50 [2, 5] [µM] | IC50 [2, 6] [µM]
1 | C[C@H](N)C(=O)N[C@@H](CCC(=O)O)C(=O)N[C@@H](Cc1ccc(O)cc1)C(=O)N[C@@H](C)C(=O)N[C@@H](CCCCN)C(=O)N[C@@H](C)C(=O)N[C@@H](C)C(=O)N[C@@H](C)C(=O)N[C@@H](C)C(=O)N[C@@H](C)C(=O)N[C@@H](C)C(=O)N[C@@H](C)C(=O)N[C@@H](C)C(=O)N[C@@H](C)C(=O)N[C@@H](C)C(=O)O [compound 32] | 3 |  |  | 
2 | C[C@H](N)C(=O)N[C@@H](C)C(=O)N[C@@H](C)C(=O)N[C@@H](Cc1ccc(O)cc1)C(=O)N[C@@H](C)C(=O)N[C@@H](C)C(=O)N[C@@H](C)C(=O)N[C@@H](C)C(=O)N[C@@H](C)C(=O)N[C@@H](C)C(=O)N[C@@H](CCCCN)C(=O)N[C@@H](C)C(=O)N[C@@H](C)C(=O)N[C@@H](C)C(=O)N[C@@H](C)C(=O)O [compound 5] (H-AAAYAAAAAAKAAAA-OH) | 7 |  |  | 
3 | C[C@H](N)C(=O)N[C@@H](CCCCN)C(=O)N[C@@H](CCCCN)C(=O)N[C@@H](Cc1ccc(O)cc1)C(=O)N[C@@H](CCC(=O)O)C(=O)N[C@@H](C)C(=O)N[C@@H](C)C(=O)N[C@@H](C)C(=O)N[C@@H](C)C(=O)N[C@@H](C)C(=O)N[C@@H](C)C(=O)N[C@@H](C)C(=O)N[C@@H](C)C(=O)N[C@@H](C)C(=O)N[C@@H](C)C(=O)O [compound 21] | 2.2 |  |  | 
4 | C[C@H](NC(=O)[C@H](C)NC(=O)[C@H](C)NC(=O)[C@H](C)NC(=O)[C@H](CCCCN)NC(=O)[C@H](C)NC(=O)[C@H](C)NC(=O)[C@H](C)NC(=O)[C@H](C)NC(=O)[C@H](C)NC(=O)[C@H](C)NC(=O)[C@H](Cc1ccc(O)cc1)NC(=O)[C@H](C)NC(=O)[C@H](CCCCN)NC(=O)[C@@H](N)CCC(=O)O)C(=O)O [compound 13] (H-EKAYAAAAAAKAAAA-OH) | 3.3 |  |  | 
5 | C[C@H](N)C(=O)N[C@@H](C)C(=O)N[C@@H](CCC(=O)O)C(=O)N[C@@H](Cc1ccc(O)cc1)C(=O)N[C@@H](CCCCN)C(=O)N[C@@H](C)C(=O)N[C@@H](C)C(=O)N[C@@H](C)C(=O)N[C@@H](C)C(=O)N[C@@H](C)C(=O)N[C@@H](C)C(=O)N[C@@H](C)C(=O)N[C@@H](C)C(=O)N[C@@H](C)C(=O)N[C@@H](C)C(=O)O [compound 26] | 1.8 |  |  | 
6 | C[C@H](N)C(=O)N[C@@H](CCCCN)C(=O)N[C@@H](Cc1ccc(O)cc1)C(=O)N[C@@H](C)C(=O)N[C@@H](CCC(=O)O)C(=O)N[C@@H](C)C(=O)N[C@@H](C)C(=O)N[C@@H](C)C(=O)N[C@@H](C)C(=O)N[C@@H](C)C(=O)N[C@@H](C)C(=O)N[C@@H](C)C(=O)N[C@@H](C)C(=O)N[C@@H](C)C(=O)N[C@@H](C)C(=O)O [compound 36] | 3 |  |  | 
7 | C[C@H](N)C(=O)N[C@@H](C)C(=O)N[C@@H](CCCCN)C(=O)N[C@@H](Cc1ccc(O)cc1)C(=O)N[C@@H](C)C(=O)N[C@@H](CCC(=O)O)C(=O)N[C@@H](C)C(=O)N[C@@H](C)C(=O)N[C@@H](C)C(=O)N[C@@H](C)C(=O)N[C@@H](CCCCN)C(=O)N[C@@H](C)C(=O)N[C@@H](C)C(=O)N[C@@H](C)C(=O)N[C@@H](C)C(=O)O [compound 15] (H-AAKYAEAAAAKAAAA-OH) | 1.8 | < 1 | 42 | 16
8 | C[C@H](N)C(=O)N[C@@H](CCC(=O)O)C(=O)N[C@@H](CCC(=O)O)C(=O)N[C@@H](Cc1ccc(O)cc1)C(=O)N[C@@H](C)C(=O)N[C@@H](C)C(=O)N[C@@H](C)C(=O)N[C@@H](C)C(=O)N[C@@H](C)C(=O)N[C@@H](C)C(=O)N[C@@H](CCCCN)C(=O)N[C@@H](C)C(=O)N[C@@H](C)C(=O)N[C@@H](C)C(=O)N[C@@H](C)C(=O)O [compound 11] | 2 |  |  | 
9 | C[C@H](N)C(=O)N[C@@H](C)C(=O)N[C@@H](CCC(=O)O)C(=O)N[C@@H](Cc1ccc(O)cc1)C(=O)N[C@@H](C)C(=O)N[C@@H](C)C(=O)N[C@@H](C)C(=O)N[C@@H](C)C(=O)N[C@@H](C)C(=O)N[C@@H](C)C(=O)N[C@@H](CCCCN)C(=O)N[C@@H](C)C(=O)N[C@@H](C)C(=O)N[C@@H](C)C(=O)N[C@@H](C)C(=O)O [compound 12] | 3.2 |  | 47 | 
10 | C[C@H](N)C(=O)N[C@@H](CCCCN)C(=O)N[C@@H](CCC(=O)O)C(=O)N[C@@H](Cc1ccc(O)cc1)C(=O)N[C@@H](C)C(=O)N[C@@H](C)C(=O)N[C@@H](C)C(=O)N[C@@H](C)C(=O)N[C@@H](C)C(=O)N[C@@H](C)C(=O)N[C@@H](CCCCN)C(=O)N[C@@H](C)C(=O)N[C@@H](C)C(=O)N[C@@H](C)C(=O)N[C@@H](C)C(=O)O [compound 7] (H-AKEYAAAAAAKAAAA-OH) | 4.5 |  | 19 | 
11 | C[C@H](NC(=O)[C@H](C)NC(=O)[C@H](C)NC(=O)[C@H](C)NC(=O)[C@H](CCCCN)NC(=O)[C@H](C)NC(=O)[C@H](C)NC(=O)[C@H](C)NC(=O)[C@H](C)NC(=O)[C@H](C)NC(=O)[C@H](C)NC(=O)[C@H](Cc1ccc(O)cc1)NC(=O)[C@H](CCCCN)NC(=O)[C@H](C)NC(=O)[C@@H](N)CCC(=O)O)C(=O)O [compound 18] (H-EAKYAAAAAAKAAAA-OH) | 4.4 | 3 | 33 | 
12 | C[C@H](N)C(=O)N[C@@H](CCC(=O)O)C(=O)N[C@@H](CCCCN)C(=O)N[C@@H](C)C(=O)N[C@@H](Cc1ccc(O)cc1)C(=O)N[C@@H](C)C(=O)N[C@@H](C)C(=O)N[C@@H](C)C(=O)N[C@@H](C)C(=O)N[C@@H](C)C(=O)N[C@@H](C)C(=O)N[C@@H](C)C(=O)N[C@@H](C)C(=O)N[C@@H](C)C(=O)N[C@@H](C)C(=O)O [compound 33] | < 1 |  |  | 
13 | CC(C)C[C@H](NC(=O)[C@H](CCCCN)NC(=O)[C@H](CC(C)C)NC(=O)[C@@H](NC(=O)[C@H](CC(N)=O)NC(=O)[C@H](CCC(N)=O)NC(=O)[C@H](CCCCN)NC(=O)[C@@H](NC(=O)[C@H](Cc1ccc(O)cc1)NC(=O)[C@H](CCCCN)NC(=O)[C@@H]1CCCN1C(=O)[C@H](C)N)C(C)C)[C@@H](C)O)C(=O)N[C@@H](C)C(=O)N[C@H](C(=O)N[C@@H](C)C(=O)O)[C@@H](C)O [compound 4] | 26 | 8.2 | 13 | 3.3
14 | C[C@H](NC(=O)[C@H](C)NC(=O)[C@H](C)NC(=O)[C@H](C)NC(=O)[C@H](CCCCN)NC(=O)[C@H](C)NC(=O)[C@H](C)NC(=O)[C@H](C)NC(=O)[C@H](C)NC(=O)[C@H](C)NC(=O)[C@H](C)NC(=O)[C@H](Cc1ccc(O)cc1)NC(=O)[C@H](C)NC(=O)[C@H](C)NC(=O)[C@@H](N)CCC(=O)O)C(=O)O [compound 16] (H-EAAYAAAAAAKAAAA-OH) | 5 |  |  | 
15 | C[C@H](N)C(=O)N[C@@H](C)C(=O)N[C@@H](CCCCN)C(=O)N[C@@H](Cc1ccc(O)cc1)C(=O)N[C@@H](CCC(=O)O)C(=O)N[C@@H](C)C(=O)N[C@@H](C)C(=O)N[C@@H](C)C(=O)N[C@@H](C)C(=O)N[C@@H](C)C(=O)N[C@@H](CCCCN)C(=O)N[C@@H](C)C(=O)N[C@@H](C)C(=O)N[C@@H](C)C(=O)N[C@@H](C)C(=O)O [compound 14] (H-AAKYEAAAAAKAAAA-OH) | 4 |  |  | 
16 | C[C@H](NC(=O)[C@H](C)NC(=O)[C@H](C)NC(=O)[C@H](C)NC(=O)[C@H](CCCCN)NC(=O)[C@H](C)NC(=O)[C@H](C)NC(=O)[C@H](C)NC(=O)[C@H](C)NC(=O)[C@H](C)NC(=O)[C@H](C)NC(=O)[C@H](Cc1ccc(O)cc1)NC(=O)[C@H](CCCCN)NC(=O)[C@H](CCCCN)NC(=O)[C@@H](N)CCC(=O)O)C(=O)O [compound 17] (H-EKKYAAAAAAKAAAA-OH) | 1.8 |  |  | 
17 | C[C@H](N)C(=O)N[C@@H](Cc1ccc(O)cc1)C(=O)N[C@@H](CCCCN)C(=O)N[C@@H](C)C(=O)N[C@@H](CCC(=O)O)C(=O)N[C@@H](C)C(=O)N[C@@H](C)C(=O)N[C@@H](C)C(=O)N[C@@H](C)C(=O)N[C@@H](C)C(=O)N[C@@H](C)C(=O)N[C@@H](C)C(=O)N[C@@H](C)C(=O)N[C@@H](C)C(=O)N[C@@H](C)C(=O)O [compound 35] | 1.3 |  |  | 
